The values that follow are results of earlier work, collected in patent US20240033249A1, “Drug Implants Containing Darolutamide and Methods of Use Thereof” (The Regents of the University of California, priority 2022, published 2024).

For this data set the following is noted: assuming 600 mg daily dose; systemic (e.g., oral) administration.

Each structure is given as a SMILES string.

Take `CC(O)c1cc(C(=O)N[C@@H](C)Cn2ccc(-c3ccc(C#N)c(Cl)c3)n2)[nH]n1` (stereo partly shown) [Darolutamide]: the “steady state blood plasma concentration of Darolutamide” value is reported as “about 4.79 mg/L”.
